{"source": "patent US20090110646A1", "about": "“Product for Treating the Skin and Mucous Membranes, and Relative Method of Preparation” (priority 2005, published 2009)", "origin": "cited, not measured here", "data": [{"smiles": "O=C(O)C(Cl)(Cl)Cl", "note": "[TCA, trichloracetic acid]", "values": [{"measurement": "depth of dermal necrosis", "setting": "solution of TCA at about 30-40% w/w", "value": "0.3-0.5 mm"}, {"measurement": "effect on skin", "setting": "solution of TCA in a concentration of less than 25% w/w", "value": "exfoliation of the epidermis"}, {"measurement": "time of eschar (crust) until skin renewal", "setting": "very concentrated TCA", "value": "7 to 10", "unit": "days"}]}]}
